Legend:
[1] = tested on: RAW264.7 phosphorylated c-Jun (Ser63); assay: RAW264.7 phosphorylated c-Jun whole cell assay; assay type: cell-based; conditions: Mus musculus; cytological assay, activity level; lipopolysaccharide-activated RAW264.7 cells, phospho-c-Jun (Ser63) ELISA
Protocol: RAW264.7 (ATCC TIB-71) cells were purchased from BeNa Culture Collection and maintained in a high-glucose DMEM medium (Gibco) containing 10% fetal bovine serum (Gibco) and 1% penicillin-streptomycin (Gibco). All cells were cultured at 37° C. in 95% air and 5% CO2. All cells were seeded into 120 μL of cell culture medium in a 96-well plate at a density of 2×10^5 cells per well. The stock solution of compound (15 mM) was serially diluted in DMSO (Sigma) and further diluted in growth medium, and it was then added at 15 μL per well as a 10× concentrated solution, well mixed with the cells and incubated with the cells for 30 min. Concentration of the compound vehicle (DMSO) in each well was 0.2%. After incubation for 30 min, the cells were activated with […] lipopolysaccharide (Sigma). Lipopolysaccharide was added to the growth medium as a 10× concentrated solution at 15 μL per well. The cell plate was incubated for 1 h, and then all the medium was removed. The level of C-Jun protein with phosphorylation of serine at site 63 was measured using the whole cell lysate kit-phosphorylated C-Jun assay (PathScan® Phospho-c-Jun (Ser63) Sandwich ELISA Kit) (CST, 7145C) according to the manufacturer's instructions.

JNK1 kinase = target: T1, JNK1 kinase (Homo sapiens, UniProt P45983); assay: JNK1 activity screening (time-resolved fluorometric HTRF kinase assay); assay type: biochemical; conditions: enzymatic assay, activity level
T1 construct: purchased Carna Biosciences 04-163
Protocol: JNK1 activity screening. JNK1 activity was detected using a 96-well (Cisbio, 66PL96025) time-resolved fluorometric assay. The JNK1 assay was conducted in the following assay buffer: 10 mM MgCl2 (Sigma, M1028), 1 mM MnCl2 (Sigma, M1787), 1 mM DTT (Sigma, D0632) and 1× Enzymatic buffer/kinase (Cisbio, 62EZBFDC). By using the assay buffer, 3 μL of 0.1 ng/μL JNK1 kinase (Carna Biosciences, 04-163) was added to a 96-well microplate, and then 4 μL of a compound diluted appropriately (with a DMSO content of 2.5%) was added. The resulting mixture was incubated at room temperature for 0.5 h. To start the reaction, the assay buffer was used to mix 0.003 μM ATP (Aladdin, A7699) and 30 μM substrate ATF2-GST fusion (Cisbio, 64CUS000AFPEB), and 3 μL of the mixed solution was added to the microplate. The resulting mixture was incubated at room temperature for 2.5 h. HTRF detection buffer ([…], 62SDBRDD) was used then to prepare a mixture of 5 μg/mL MAb Anti GST-XL665 (Cisbio, 61GSTXLA) and 0.045 μg/mL PAb Anti-phospho ATF2-K (Cisbio, 61P12KAZ), and 10 μL of the mixture was added to the plate to terminate the reaction. After incubation for about 12 h, the plate was read on a Perkin-Elmer Envision reader.

T1 sequence (P45983 whole entry): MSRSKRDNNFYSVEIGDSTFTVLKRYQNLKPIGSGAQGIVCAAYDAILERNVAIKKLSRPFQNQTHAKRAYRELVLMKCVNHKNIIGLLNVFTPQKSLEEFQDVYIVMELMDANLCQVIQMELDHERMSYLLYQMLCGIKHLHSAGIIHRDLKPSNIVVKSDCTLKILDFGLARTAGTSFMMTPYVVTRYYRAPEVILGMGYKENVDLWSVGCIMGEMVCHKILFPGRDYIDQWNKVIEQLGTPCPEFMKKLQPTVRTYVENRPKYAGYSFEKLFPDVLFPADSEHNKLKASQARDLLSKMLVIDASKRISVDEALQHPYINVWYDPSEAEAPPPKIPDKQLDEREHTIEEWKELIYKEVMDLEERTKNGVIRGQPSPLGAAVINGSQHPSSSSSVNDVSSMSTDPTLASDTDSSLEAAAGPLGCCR

Row | SMILES | IC50 [1] [µM] | IC50 (JNK1 kinase) [µM]
1 | C[C@@H]1CC[C@@H](Nc2nc(NC(C)(C)C)ncc2C(=O)N2CC2)C[C@H]1O [Compound T027, Aziridin-1-yl(2-(tert-butylamino)-4-(((1R, 3R,4R)-3-hydroxy-4-methylcyclohexyl)amino)pyrimidin-5-yl)methanone] | > 1 | 0.5 to 1
2 | C[C@@H]1CC[C@@H](Nc2nc(NC(C)(C)C)ncc2C(F)F)C[C@H]1O [Compound T028, (1R,2R,5R)-5-((2-(tert-butylamino)-5-(difluoromethyl)pyrimidin-4-yl)amino)-2-methylcyclohex-1-ol] | > 1 | > 1
3 | COc1cnc(NC(C)(C)C)nc1N[C@@H]1CC[C@@H](C)[C@H](O)C1 [Compound T029, (1R,2R,5R)-5-((2-(tert-butylamino)-5-methoxypyrimidin-4-yl)amino)-2-methylcyclohex-1-ol] | > 1 | > 1
4 | C[C@@H]1CC[C@@H](Nc2nc(NC(C)(C)C)ncc2CF)C[C@H]1O [Compound T030, (1R,2R,5R)-5-((2-(tert-butylamino)-5-(fluoromethyl)pyrimidin-4-yl)amino)-2-methylcyclohex-1-ol] | > 1 | > 1
5 | C[C@@H]1CC[C@@H](Nc2nc(NC(C)(C)C)ncc2O)C[C@H]1O [Compound T032, 2-(tert-butylamino)-4-(((1R,3R,4R)-3-hydroxy-4-methylcyclohexyl)amino) pyrimidine-5-ol] | > 1 | > 1
6 | C[C@@H]1CC[C@@H](Nc2nc(NC(C)(C)C)ncc2Br)C[C@H]1O [Compound T033, (1R,2R,5R)-5-((5-bromo-2-(tert-butylamino)pyrimidin-4-yl)amino)-2-methylcyclohexan-1-ol] | 0.5 to 1 | < 0.1
7 | COc1ccc(Oc2ncc(C(N)=O)c(N[C@@H]3CC[C@@H](C)[C@H](O)C3)n2)cc1 [Compound T040, 4-(((1R,3R,4R)-3-hydroxy-4-methylcyclohexyl)amino)-2-(4-methoxyphenoxy)pyrimidine-5-carboxamide] | 0.5 to 1 | 0.1 to 0.5
8 | C[C@@H]1CC[C@@H](Nc2nc(OC(C)(C)C)ncc2C(N)=O)C[C@H]1O [Compound T043, 2-(tert-butoxy)-4-(((1R,3R,4R)-3-hydroxy-4-methylcyclohexyl)amino) pyrimidine-5-carboxamide] | > 1 | 0.5 to 1
9 | C[C@@H]1CC[C@@H](Nc2cc(NC(C)(C)C)ncc2C#N)C[C@H]1O [Compound T044, 6-(tert-butylamino)-4-(((1R,3R,4R)-3-hydroxy-4-methylcyclohexyl)amino) nicotinonitrile] | > 1 | > 1
10 | C[C@@H]1CC[C@@H](Nc2cc(NC(C)(C)C)ncc2C(N)=O)C[C@H]1O [Compound T045, 6-(tert-butylamino)-4-(((1R,3R,4R)-3-hydroxy-4-methylcyclohexyl)amino) nicotinamide] | > 1 | > 1
11 | C[C@@H]1CC[C@@H](Nc2cc(NCCO)ncc2C(N)=O)C[C@H]1O [Compound T046, 4-(((1R,3R,4R)-3-hydroxy-4-methylcyclohexyl)amino)-6-((2-hydroxyethyl)amino)nicotinamide] | > 1 | 0.5 to 1
12 | CC(C)Nc1cc(N[C@@H]2CC[C@@H](C)[C@H](O)C2)c(C(N)=O)cn1 [Compound T047, 4-(((1R,3R,4R)-3-hydroxy-4-methylcyclohexyl)amino)-6-(isopropylamino)nicotinamide] | > 1 | 0.5 to 1
13 | C[C@@H]1CC[C@@H](Nc2cc(NC3CCC3O)ncc2C(N)=O)C[C@H]1O (stereo partly drawn) [Compound T050, 4-(((1R,3R,4R)-3-hydroxy-4-methylcyclohexyl)amino)-6-((2-hydroxycyclobutyl)amino)nicotinamide] | > 1 | 0.5 to 1
14 | C[C@@H]1CC[C@@H](Nc2cc(NC3CC(O)C3)ncc2C(N)=O)C[C@H]1O (stereo partly drawn) [Compound T051, 4-(((1R,3R,4R)-3-hydroxy-4-methylcyclohexyl)amino)-6-((3-hydroxycyclobutyl)amino)nicotinamide] | > 1 | 0.5 to 1
15 | C[C@@H]1CC[C@@H](Nc2cc(NC3CCCC(O)C3)ncc2C(N)=O)C[C@H]1O (stereo partly drawn) [Compound T053, 4-(((1R,3R,4R)-3-hydroxy-4-methylcyclohexyl)amino)-6-((3-hydroxycyclohexyl)amino) nicotinamide] | > 1 | > 1
16 | C[C@@H]1CC[C@@H](Nc2cc(NC3CCCCC3)ncc2C(N)=O)C[C@H]1O [Compound T054, 6-(cyclohexylamino)-4-(((1R,3R,4R)-3-hydroxy-4-methylcyclohexyl)amino) nicotinamide] | > 1 | > 1
17 | C[C@@H]1CC[C@@H](Nc2cc(NC3CCCC3O)ncc2C(N)=O)C[C@H]1O (stereo partly drawn) [Compound T055, 4-(((1R,3R,4R)-3-hydroxy-4-methylcyclohexyl)amino)-6-((2-hydroxycyclopentyl)amino)nicotinamide] | > 1 | > 1

Other lines, results leading:

Row | IC50 [1] [µM] | IC50 (JNK1 kinase) [µM] | SMILES
18 | > 1 | > 1 | C[C@@H]1CC[C@@H](Nc2nc(NC(C)(C)C)ncc2S(N)(=O)=O)C[C@H]1O [Compound T031, 2-(tert-butylamino)-4-(((1R,3R,4R)-3-hydroxy-4-methylcyclohexyl)amino) pyrimidine-5-sulfamide]
19 | > 1 | > 1 | C[C@@H]1CC[C@@H](Nc2nc(NC(C)(C)C)ncc2-n2ccnc2)C[C@H]1O [Compound T034, (1R,2R,5R)-5-((2-(ter-butylamino)-5-(1H-imidazol-1-yl)pyrimidin-4-yl)amino)-2-methylcyclohex-1-ol]
20 | 0.5 to 1 | 0.1 to 0.5 | C[C@@H]1CC[C@@H](Nc2nc(NC(C)(C)C)ncc2-n2cncn2)C[C@H]1O [Compound T035, (1R,2R,5R)-5-((2-(tert-butylamino)-5-(1H-1,2,4-triazol-1-yl)pyrimidin-4-yl)amino)-2-methylcyclohexan-1-ol]
21 | 0.5 to 1 | 0.1 to 0.5 | C[C@@H]1CC[C@@H](Nc2nc(NC(C)(C)C)ncc2-n2ccnn2)C[C@H]1O [Compound T036, (1R,2R,5R)-5-((2-(tert-butylamino)-5-(1H-1,2,3-triazol-1-yl)pyrimidin-4-yl)amino)-2-methylcyclohexan-1-ol]
22 | > 1 | > 1 | CS(=O)(=O)CCn1ccc(Nc2ccnc(N[C@H]3CC[C@H](O)CC3)n2)n1 [Compound T037, (1R,4R)-4-((4-((1-(2-(methylsulfonyl)ethyl)-1H-pyrazol-3-yl)amino)pyrimidin-2-yl)amino)cyclohexan-1-ol]
23 | > 1 | > 1 | CS(=O)(=O)CCn1nccc1Nc1ccnc(N[C@H]2CC[C@H](O)CC2)n1 [Compound T038, (1R,4R)-4-((4-((1-(2-(methylsulfonyl)ethyl)-1H-pyrazol-5-yl)amino)pyrimidin-2-yl)amino)cyclohexan-1-ol]
24 | > 1 | 0.1 to 0.5 | C[C@@H]1CC[C@@H](Nc2nc(O[C@H]3CC[C@H](O)CC3)ncc2C(N)=O)C[C@H]1O [Compound T039, 4-(((1R,3R,4R)-3-hydroxy-4-methylcyclohexyl)amino)-2-(((1R, 4R)-4-hydroxycyclohexyl)oxy) pyrimidine-5-carboxamide]
25 | > 1 | 0.5 to 1 | C[C@@H]1CC[C@@H](Nc2nc(OC3CC3)ncc2C(N)=O)C[C@H]1O [Compound T042, 2-cyclopropoxy-4-(((1R,3R,4R)-3-hydroxy-4-methylcyclohexyl)amino) pyrimidine-5-carboxamide]
26 | > 1 | 0.5 to 1 | C[C@@H]1CC[C@@H](Nc2cc(NC3CCC(O)C3)ncc2C(N)=O)C[C@H]1O (stereo partly drawn) [Compound T048, 4-(((1R,3R,4R)-3-hydroxy-4-methylcyclohexyl)amino)-6-((3-hydroxycyclopentyl)amino) nicotinamide]
27 | > 1 | 0.5 to 1 | C[C@@H]1CC[C@@H](Nc2cc(NC3CCC3)ncc2C(N)=O)C[C@H]1O [Compound T049, 6-(cyclobutylamino)-4-(((1R,3R,4R)-3-hydroxy-4-methylcyclohexyl)amino) nicotinamide]
28 | > 1 | 0.5 to 1 | C[C@@H]1CC[C@@H](Nc2cc(NC3CCC(O)CC3)ncc2C(N)=O)C[C@H]1O (stereo partly drawn) [Compound T052, 4-(((1R,3R,4R)-3-hydroxy-4-methylcyclohexyl)amino)-6-((4-hydroxycyclohexyl)amino) nicotinamide]
